These results are taken from ChEMBL document CHEMBL1201862, “PubChem BioAssay data set” (2004).

For test [1], the target named is T1, Sentrin-specific protease 1 (Homo sapiens, UniProt Q9P0U3). The test is described as follows: SENP1 catalytic domain blockers, concentration series – biochemical, kinetic FRET, dose response (AID 651697). Type of test: functional. The conditions noted are these: read-out: IC50_Mean.
The target of test [2] is T1, Sentrin-specific protease 1. The test is described as follows: Dose response confirmation of small molecule inhibitors of the catalytic domain of the SUMO protease, SENP1 in a FRET assay. Type of test: functional. The following applies: read-out: IC50_Mean.
Test [3] is described as follows: HEK-293T viability loss after treatment – luminescence, T-cell screen hits, cytotoxicity control for TCR NF-kB inhibitor project, dose response (AID 489026).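 Also: cells exposed to compound about 14 hours before the viability readout.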 In kind it is functional, cell-based.
In the next test the target is Paired box protein Pax-8 (Homo sapiens, UniProt Q06710). The test is described as follows: PAX8 transcriptional activity inhibition in RMG-I – RMG-I cells, luciferase, cherry-pick, dose response (AID 687027).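 Also: luciferase reporter driven by Pax8 target thyroperoxidase promoter measured by SteadyGlo luminescence.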 Type of test: functional, cell-based.
Test [4] in a line: inhibitors acting on PAX2 in cells – cell-based, plate reader, dry powder samples, selectivity assay for PAX8 inhibitor project, dose response (AID 743048).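 Also: HEK293 cells carrying a WT1 promoter luciferase reporter driven by expressed Pax2; potency is for inhibition of Pax2 driven reporter signal.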 Type of test: functional.
A short description of test [5]: COV362 cell viability loss – plate reader, dry powder, SA12, cytotoxicity control for PAX8 inhibitor project, dose response (AID 743144). In kind it is functional, cell-based.
The nature of test [6]: toxicity toward immortalized ovarian surface epithelium – cell-based, plate reader, dry powder samples, cytotoxicity control for PAX8 inhibitor project, dose response (AID 743045). In kind it is functional.
The nature of test [7]: A2780 cell killing – plate reader, dry powder samples, cytotoxicity control, dose response (AID 743046). In kind it is functional, cell-based.
The nature of test [8]: OVCAR-3 cell viability loss – plate reader, dry powder samples, PAX8 inhibitor project, dose response (AID 743044). In kind it is functional, cell-based.
Test [9] can be described thus: PAX5 cellular inhibition readout – cell-based, plate reader, dry powder samples, selectivity assay for PAX8 inhibitor project, dose response (AID 743047).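 Also: HEK293 cells carrying a Pax5 driven CD19 promoter luciferase reporter; potency of inhibitors that lower reporter luminescence.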 Type of test: functional.
Test [10] is described as follows: A549 cell cytotoxicity, dose response, cytotoxicity control, plate reader, cherry-pick, antagonist series (AID 743412). In kind it is functional, cell-based.
Test [11] in a line: toxicity toward HepG2 liver cells – cell-based, plate reader, cherry-pick, antagonist series, cytotoxicity control, dose response (AID 743416). Type of test: functional.
Test [12] is described as follows: IGROV1 cell killing – plate reader, dry powder samples, PAX8 inhibitor project, dose response (AID 743043). The conditions noted are these: IGROV-1. In kind it is functional, cell-based.
Test [13] can be described thus: blockers of bursicon-stimulated LGR2 cAMP reporter – cell-based, HEK293, CRE-luciferase reporter, cherry pick, set 2, dose response (AID 743343).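 Also: transfected cells were stimulated with diluted bursicon conditioned medium after compound addition.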 In kind it is functional. A general note: A reporter such as luciferase makes a cellular process visible.
Test [14] is described as follows: OVCAR4 cell viability loss – plate reader, dry powder, SA11, cytotoxicity control for PAX8 inhibitor project, dose response (AID 743150). Type of test: functional, cell-based. The following applies: OVCAR-4.
Test [15] is described as follows: COV434 cell viability loss – plate reader, dry powder, SA7, cytotoxicity control for PAX8 inhibitor project, dose response (AID 743145). Type of test: functional, cell-based.
Test [16] can be described thus: OV-90 cell viability loss – plate reader, dry powder, SA8, PAX8 inhibitor project, dose response (AID 743149). Type of test: functional, cell-based.
Test [17] can be described thus: general cell-killing toxicity readout – plate reader, dry powder samples, cytotoxicity control for PAX8 inhibitor project, dose response (AID 743021). In kind it is functional, cell-based.
The nature of test [18]: blockade of melanocortin 4 receptor signaling – cell-based, plate reader, cherry pick, counter-screen for LGR2 antagonist project, dose response (AID 743444).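 Also: transfected HEK 293 cells stimulated with alpha-MSH peptide; potency of inhibitors of the alpha-MSH evoked signal.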 In kind it is functional. A general note: The purpose of a counterscreen is to sort out artefacts and off-target activity.
Test [19] in a line: PAX8-dependent cell viability loss – plate reader, dry powder, dose response (AID 743049). Type of test: functional, cell-based.
Test [20] in a line: viability loss in HEK293 cells – cell-based, plate reader, cherry-picked samples, cytotoxicity control, dose response (AID 743446). In kind it is functional.
In test [21] the target is T2, Oxysterols receptor LXR-beta (Homo sapiens, UniProt P55055).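 Also: agonist activity at LXR measured by a cell-based luminescence readout across a dose range, run as a counterscreen for daf-12 agonists; HEK293 cells with Gal4-LXR fusion and GAL4-driven luciferase reporter; potency for activation of Gal4-LXR reporter so compounds are agonists.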
T2 sequence (P55055 whole entry): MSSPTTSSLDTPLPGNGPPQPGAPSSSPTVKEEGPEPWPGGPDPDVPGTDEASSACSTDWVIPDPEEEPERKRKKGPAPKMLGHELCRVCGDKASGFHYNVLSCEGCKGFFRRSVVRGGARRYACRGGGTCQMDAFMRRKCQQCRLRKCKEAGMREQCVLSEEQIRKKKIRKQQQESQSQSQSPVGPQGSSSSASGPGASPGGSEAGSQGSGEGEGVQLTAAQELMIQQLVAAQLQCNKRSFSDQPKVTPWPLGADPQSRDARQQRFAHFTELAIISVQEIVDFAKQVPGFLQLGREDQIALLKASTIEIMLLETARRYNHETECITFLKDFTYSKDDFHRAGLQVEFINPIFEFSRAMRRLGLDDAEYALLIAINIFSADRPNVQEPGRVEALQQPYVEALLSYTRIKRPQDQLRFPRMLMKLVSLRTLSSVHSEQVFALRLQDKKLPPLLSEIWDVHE
Type of test: functional, cell-based.

For the next test, the target named is Major prion protein (Homo sapiens, UniProt P04156). Type of test: functional, cell-based.
A short description of test [22]: cells.
A short description of test [23]: THP-1 cell cytotoxicity, dose response, cytotoxicity control for non-replicating M. tuberculosis project (AID 489025). In kind it is functional.
Another test concerns the target Nonstructural protein 1 (Influenza A virus, UniProt Q194T2). In kind it is functional, Influenza A virus (A/California/07/2009(H1N1)).
A short description of test [24]: cells. Type of test: functional.
The target in test [25] is Matrix metalloproteinase-14 (Homo sapiens, UniProt P50281). As to the kind of experiment: Dose Response confirmation of uHTS hits for a small molecule inhibitors of MT1-MMP activation in a fluorescence assay set 1. In kind it is functional.
Test [26] addresses COUP transcription factor 2 (Homo sapiens, UniProt P24468). The test is described as follows: Luminescence-based cell-based high throughput dose response assay to identify inhibitors of COUP-TFII (NR2F2). Type of test: functional.
The nature of test [27]: cells. In kind it is functional, cell-based.
Test [28] concerns the target T3, Trace amine-associated receptor 1 (Homo sapiens, UniProt Q96RJ0). The test is described as follows: Fluorescence-based cell-based high throughput dose response assay to identify agonists of the human trace amine associated receptor 1 (TAAR1). Type of test: functional.
Test [29] concerns the target T3, Trace amine-associated receptor 1. As to the kind of experiment: Counterscreen for agonists of the human trace amine associated receptor 1 (hTAAR1): Fluorescence-based cell-based high throughput dose response assay to identify hTAAR1 agonist that also desensitize TAAR1 receptor response. Type of test: functional.
The nature of test [30]: cells. In kind it is functional, cell-based. The source holds these as a separate data set.
The test system of the next test is HeLa. As to the kind of experiment: viability loss in HeLa cells – cell-based, ATP luminescence, cherry-pick samples, cytotoxicity control, dose response (AID 687004). In kind it is functional. The following applies: Homo sapiens.

Calls of active or inactive are those of the source.

As to `COc1ccc2sc(/C=C/c3ccccc3O)[n+](C)c2c1`, the IC50 was 14.3 µM (active) in test [1] and 10.2 µM (active) in test [2].
For orientation: AC50 means the concentration at which the activity in the assay is half-maximal. In the case of `Cc1cnc(NC(=O)c2ccc3c(c2)OCCO3)s1`, the IC50 in test [3] was > 80 µM (inactive). Besides, the AC50 at Paired box protein Pax-8 was 3.49 µM (active); in test [4], 13.4 µM (active); in [5], 10.2 µM (active); in test [6], 26 µM (active); in [7] it was 28.8 µM (active); in test [8], 18.4 µM (active). In addition, the half-maximal activity concentration (AC50) in test [9] is 17.5 µM (active); in test [10], 5.12 µM (active); in test [11], 36 µM (active); in test [12], 20.7 µM (active); in [13], 0.854 µM (active); in test [14], 26.8 µM (active). In addition, the concentration at half-maximal activity (AC50) was 29.4 µM (active) in [15]; 9.33 µM (active) in [16]; 52.3 µM (active) in test [17]; 0.794 µM (active) in test [18]; 13.1 µM (active) in test [19]; 31.4 µM (active) in test [20].
For orientation: EC50 means the concentration at which the effect is half-maximal. With `Nc1c(-c2cccs2)cnc2c(-c3ccc(F)cc3)cnn12`, in test [21], the EC50 is > 67.5 µM (inactive).
As for `CN(C)S(=O)(=O)c1ccc(N2CCCC2)c(C(=O)Nc2nc3ccccc3s2)c1`, the IC50 on Major prion protein was 10.4 µM (inactive); in “cells [22]” it was > 138 µM (inactive).
Usually CC50 stands for the concentration that lowers cell viability or growth by half. Turning to `COc1ccc(Nc2ccccc2N)cc1`, in test [23], the CC50 is 38.1 µM (active). For the same compound, the IC50 on Nonstructural protein 1 is 42.8 µM (active); in the test “cells [24]” it was 1.41 µM (active); in [25], 8.32 µM (active).
As to `Cc1nn(C)c(C)c1NC(=O)COc1ccc(Cl)cc1Br`, the IC50 in test [26] was 8.76 µM (active).
On to `CC(=NCCc1ccc(O)cc1)C1=C(O)OCC1`, for which the IC50 in “cells [27]” is > 29.9 µM (inactive); in test [29], 9.27 µM (active). Further, the EC50 was 2.05 µM (active) in test [28] and > 29.9 µM (inactive) in the test “cells [30]”.
`C[C@@H]1CN([C@@H](C)CO)C(=O)c2cc(NC(=O)Nc3cccc4ccccc34)ccc2O[C@@H]1CN(C)C(=O)Nc1ccccc1`: the half-maximal activity concentration (AC50) in the test on HeLa is 0.252 µM (active).
